Data reported in publication PMC3662789, “Structural Investigation of a Novel N-Acetyl Glucosamine Binding Chi-Lectin Which Reveals Evolutionary Relationship with Class III Chitinases” (PLoS ONE, 2013).

Target: T1, TCLL (tamarind chitinase like lectin) (Tamarindus indica, UniProt S4S1V9)
T1 construct: monomer, glycosylated at Asn146; 33440 Da (deglycosylated 31811 Da); 266 residues modelled (7-272)
Experiment: isothermal titration calorimetry (single-site model)
Format: binding
Details: 20 mM Tris, pH 7.4, 25°C; 0.3 mM protein, 8 mM sugar in syringe; crystal complex at 1.6 Å with two surface sites S1 and S2

T1 sequence (S4S1V9 entry or part of it): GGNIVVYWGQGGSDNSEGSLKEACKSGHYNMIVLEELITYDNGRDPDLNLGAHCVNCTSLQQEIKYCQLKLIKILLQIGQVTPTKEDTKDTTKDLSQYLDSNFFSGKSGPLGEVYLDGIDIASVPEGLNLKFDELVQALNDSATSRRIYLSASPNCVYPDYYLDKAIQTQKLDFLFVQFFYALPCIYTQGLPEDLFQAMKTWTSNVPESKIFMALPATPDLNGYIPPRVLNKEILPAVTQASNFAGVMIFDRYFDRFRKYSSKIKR

- Ka: 2.9×10^3
Structure (SMILES): CC(=O)N[C@H]1C(O)O[C@H](CO)[C@@H](O)[C@@H]1O (stereo partly shown) [N-acetyl glucosamine]
